{
  "source": "patent US12209142B2",
  "about": "“SARS-CoV-2 epitope-targeted peptide immunostimulants” (Institute for Systems Biology, priority 2020, dated 2025)",
  "key": {"[1]": {"test_system": "Salmonella typhimurium (S. typhimurium) cells", "experiment": "Whole-cell ELISA of biotinylated PCC binding", "conditions": "biotinylated PCC at 5 μM", "description": "Whole-cell ELISAs. Detection of the binding of biotinylated PCCs to bacterial surface was performed as follows. 108 bacteria from a culture grown overnight were used for each test. Bacteria were incubated with PBS containing 1% BSA (PBS-BSA) for 1 h at 37° C., washed once with PBS, and then incubated with 5 μM of the biotinylated PCC in PBS-BSA for 1 h at 37° C. After washing thrice with PBS to remove unbound PCCs, bacteria were incubated with Streptavidin-HRP (1:1000) for 1 h at 37° C. Bacteria were washed thoroughly and the TMB reagent was added until visible coloration was observed. The reaction was quenched using 2N H2SO4 and absorbance was measured at 450 nm."}, "[2]": {"test_system": "MrkA-expressing K. pneumoniae cells", "experiment": "Whole-cell ELISA of biotinylated PCC binding"}, "[3]": {"test_system": "K. pneumoniae cells (strain BAA 1705)", "experiment": "Gentamicin protection assay: phagocytosis and opsonophagocytic killing (OPK) by macrophages", "assay_type": "cell-based, Klebsiella pneumoniae", "how_it_was_run": "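Strain BAA 1705 treated with DNP-conjugated EPIs (5 μM), opsonized with anti-DNP antibody, then given to murine bone-marrow macrophages at MOI 50 for 0.5 h at 37° C. Extracellular bacteria killed with gentamicin (100 μg/ml). Macrophages lysed at 1 h (phagocytosis) and 24 h (OPK); intracellular CFU counted on LB agar, in triplicate.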"}, "[4]": {"conditions": "strain BAA 1705, PCC 5 μM or lower"}},
  "note": "Entries after “also recorded” stand apart in the source; their conditions may differ. Where a SMILES comes first, the peptide text is derived from it. Bridges are numbered along the chain shown (N, C = ends). Triazole bridges read from a SMILES are 1,4-linked. [ ]: non-standard residue; d: D form. The star is where a group is joined. Biotin = O=C1N[C@H]2[C@H](CS[C@H]2CCCCC(=O)*)N1; Lys(N3) = [N-]=[N+]=NCCCC[C@H](N)C(=O)O; PEG5 = NCCOCCOCCOCCOCCOCCC(=O)O; Pra = C#CC[C@H](N)C(=O)O",
  "data": [
    {"smiles": "CC(C)C[C@@H]1NC(=O)[C@@H](NC(=O)CCOCCOCCOCCOCCOCCNC(=O)CCCC[C@@H]2SC[C@@H]3NC(=O)N[C@@H]32)Cc2cn(nn2)CCCC[C@@H](C(N)=O)NC(=O)[C@H](Cc2ccccc2)NC(=O)[C@H](Cc2ccccc2)NC(=O)[C@H](Cc2ccccc2)NC(=O)[C@H](CC(C)C)NC1=O", "note": "[cy(LLFFF)] ({Biotin-PEG5}-[Pra]LLFFF[Lys(N3)]-NH2; triazole 1-7; N-terminus and C-terminus assumed)", "values": [
      {"measurement": "whole-cell ELISA signal, S. typhimurium", "setting": "[1]", "value": "small absorbances; also recorded: only weak signals"},
      {"measurement": "whole-cell ELISA signal, MrkA-knockout KPPR1", "setting": "[2]; MrkA/B/C knockout KPPR1", "value": "ELISA intensities comparable to baseline"},
      {"measurement": "whole-cell ELISA signal, K. pneumoniae BAA 1705 and BAA 2146", "setting": "[2]; biotinylated PCC at 5 μM", "value": "high absorbance; also recorded: strong signal; also recorded: binds two strains of MrkA-expressing K. pneumoniae cells with excellent selectivity versus E. coli and S. typhimurium"},
      {"measurement": "whole-cell ELISA signal at high PCC concentration, LB or G-CAA", "setting": "[2]; strain BAA 1705, 50 μM PCC", "value": "strong and comparable ELISA signals"},
      {"measurement": "whole-cell ELISA 450 nm absorbance, cells cultured in G-CAA (high MrkA)", "setting": "[2]; [4]", "value": "strong absorbances"},
      {"measurement": "whole-cell ELISA 450 nm absorbance, cells cultured in LB (low MrkA)", "setting": "[2]; [4]", "value": "near-baseline absorbances"},
      {"measurement": "whole-cell ELISA signal, wild type KPPR1", "setting": "[2]; wild type KPPR1 (ATCC 43816), G-CAA media, 5 μM down to 5 nM", "value": "strong signals; also recorded: binds wild type MrkA-expressing KPPR1 cells"},
      {"measurement": "CFU at 6 hrs, DNP-conjugated EPI and anti-DNP antibody", "setting": "[3]; macrophages harvested at 6 hrs", "value": "more than 80,000 CFU"},
      {"measurement": "cell counts at 6 hrs, DNP-conjugated EPI without antibody", "setting": "[3]; macrophages harvested at 6 hrs", "value": "~35,000"},
      {"measurement": "colony counts at 24 h (OPK)", "setting": "[3]; macrophages harvested at 24 h", "value": "little to no cell counts"}
    ]}
  ]
}
